Experimental data as given in US6472348B1, “Pyridone derivatives and herbicides” (Kumiai Chemical Industry Co., Ltd., priority 1996, dated 2002).

Experiments:
Format in all cases: in vivo
pale smartweed (Po) [1] = assay: Test Example 2: herbicidal effects by upland field soil treatment; conditions: 100 g of the active ingredient per 10 ares, 21st day after the application, index 0-5 of Table 47;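 further: grade of growth control; 5 = at least 90%; 4 = 70 to 90%; 3 = 50 to 70%; 2 = 30 to 50%; 1 = 10 to 30%; 0 = under 10%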
Description: (§1) (Test on Herbicidal Effects by Upland Field Soil Treatment)

rice flatsedge (Ci) [2] = assay: as above; conditions: 100 g of the active ingredient per 10 ares, 21st day after the application, index 0-5 of Table 47
Description: as §1

Digitaria ciliaris (Di) = assay: as above; conditions: 100 g of the active ingredient per 10 ares, 21st day after the application, index 0-5 of Table 47;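 further: grade of growth control; 5 = at least 90%; 4 = 70 to 90%; 3 = 50 to 70%; 2 = 30 to 50%; 1 = 10 to 30%; 0 = under 10%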
Description: as §1

[3] = system: common lambsquarters (Ch); assay: as above; conditions: 100 g of the active ingredient per 10 ares, 21st day after the application, index 0-5 of Table 47
Description: as §1

slender amaranth (Am) [4] = assay: as above; conditions: 100 g of the active ingredient per 10 ares, 21st day after the application, index 0-5 of Table 47
Description: as §1

barnyardgrass (Ec) [5] = assay: as above; conditions: 100 g of the active ingredient per 10 ares, 21st day after the application, index 0-5 of Table 47
Description: as §1

bulrush (Sc) = assay: Test Example 1: herbicidal effects by paddy field soil treatment; conditions: 100 g of the active ingredient per 10 ares, 21st day after the application, index 0-5 of Table 47;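 further: grade of growth control; 5 = at least 90%; 4 = 70 to 90%; 3 = 50 to 70%; 2 = 30 to 50%; 1 = 10 to 30%; 0 = under 10%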
Description: (§2) (Test on Herbicidal Effects by Paddy Field Soil Treatment)
(§3) In a plastic pot (surface area: 100 cm^2) filled with paddy field soil, barnyardgrass (Ec), monochoria (Mo) and bulrush (Sc) were sown after puddling and leveling, and flooded to a water depth of 3 cm. […] The dose was 100 g of the active ingredient per 10 ares. The plants were then cultured in a green house, and the evaluation of the herbicidal effects was conducted on the 21st day after the application in accordance with the standards as identified in Table 47.

monochoria (Mo) = assay: as above; conditions: 100 g of the active ingredient per 10 ares, 21st day after the application, index 0-5 of Table 47;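 further: grade of growth control; 5 = at least 90%; 4 = 70 to 90%; 3 = 50 to 70%; 2 = 30 to 50%; 1 = 10 to 30%; 0 = under 10%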
Description: as §2, §3

barnyardgrass (Ec) [6] = assay: as above; conditions: 100 g of the active ingredient per 10 ares, 21st day after the application, index 0-5 of Table 47
Description: as §2, §3

pale smartweed (Po) [7] = assay: Test Example 3: herbicidal effects by upland field foliage treatment; design: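 grade of growth control; 5 = at least 90%; 4 = 70 to 90%; 3 = 50 to 70%; 2 = 30 to 50%; 1 = 10 to 30%; 0 = under 10%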; conditions: 100 g of the active ingredient per 10 ares, evaluated on the 14th day after treatment
Description: (§4) (Test on Herbicidal Effects by Upland Field Foliage Treatment)
(§5) In a plastic pot (surface area: 120 cm^2) filled with sand, barnyardgrass (Ec), Diaitaria ciliaris (Di), pale smartweed (Po), slender amaranth (Am), common lambsquarters (Ch) and rice flatsedge (Ci) were sown and covered with soil and were cultured in a green house for 2 weeks. […] The plants were then cultured in the green house, and the evaluation of the herbicidal effects was conducted on the 14th day after the treatment in accordance with the standards as identified in Table 47. Symbol—represents “not tested”.

rice flatsedge (Ci) [8] = assay: as above; design: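 grade of growth control; 5 = at least 90%; 4 = 70 to 90%; 3 = 50 to 70%; 2 = 30 to 50%; 1 = 10 to 30%; 0 = under 10%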; conditions: 100 g of the active ingredient per 10 ares, evaluated on the 14th day after treatment
Description: as §4, §5

[9] = system: common lambsquarters (Ch); assay: as above; design: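 grade of growth control; 5 = at least 90%; 4 = 70 to 90%; 3 = 50 to 70%; 2 = 30 to 50%; 1 = 10 to 30%; 0 = under 10%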; conditions: 100 g of the active ingredient per 10 ares, evaluated on the 14th day after treatment
Description: as §4, §5

Diaitaria ciliaris (Di) = assay: as above; design: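 grade of growth control; 5 = at least 90%; 4 = 70 to 90%; 3 = 50 to 70%; 2 = 30 to 50%; 1 = 10 to 30%; 0 = under 10%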; conditions: 100 g of the active ingredient per 10 ares, evaluated on the 14th day after treatment
Description: as §4, §5

slender amaranth (Am) [10] = assay: as above; design: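 grade of growth control; 5 = at least 90%; 4 = 70 to 90%; 3 = 50 to 70%; 2 = 30 to 50%; 1 = 10 to 30%; 0 = under 10%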; conditions: 100 g of the active ingredient per 10 ares, evaluated on the 14th day after treatment
Description: as §4, §5

barnyardgrass (Ec) [11] = assay: as above; design: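 grade of growth control; 5 = at least 90%; 4 = 70 to 90%; 3 = 50 to 70%; 2 = 30 to 50%; 1 = 10 to 30%; 0 = under 10%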; conditions: 100 g of the active ingredient per 10 ares, evaluated on the 14th day after treatment
Description: as §4, §5

| Structure (SMILES) | Herbicidal effects Po (pale smartweed (Po) [1]) | Herbicidal effects Ci (rice flatsedge (Ci) [2]) | Herbicidal effects Di (Digitaria ciliaris (Di)) | Herbicidal effects Ch [3] | Herbicidal effects Am (slender amaranth (Am) [4]) | Herbicidal effects Ec (barnyardgrass (Ec) [5]) | Herbicidal effects Sc (bulrush (Sc)) | Herbicidal effects Mo (monochoria (Mo)) | Herbicidal effects Ec (barnyardgrass (Ec) [6]) | Herbicidal effects Po (pale smartweed (Po) [7]) | Herbicidal effects Ci (rice flatsedge (Ci) [8]) | Herbicidal effects Ch [9] | Herbicidal effects Di (Diaitaria ciliaris (Di)) | Herbicidal effects Am (slender amaranth (Am) [10]) | Herbicidal effects Ec (barnyardgrass (Ec) [11]) |
| --- | --- | --- | --- | --- | --- | --- | --- | --- | --- | --- | --- | --- | --- | --- | --- |
| CCOC(=O)C(C)OC(=O)c1cc(-c2ccc(C(F)(F)F)n(C)c2=O)c(F)cc1Cl (racemic) [1-143] | 5 | 5 | 5 | 5 | 5 | 5 | 5 | 5 | 5 | 5 | 5 | 5 | 5 | 5 | 5 |
| Cn1c(C(F)(F)F)ccc(-c2ccc(Cl)cc2Cl)c1=O [1-3] | 5 | 5 | 5 | 5 | 5 | 5 | 5 | 5 | 5 | 5 | 5 | 5 | 5 | 5 | 5 |
| CCOC(=O)C(C)Oc1cc(-c2ccc(C(F)(F)F)n(C)c2=O)c(F)cc1Cl (stereo not drawn) [1-21] | 5 | 5 | 5 | 5 | 5 | 5 | 5 | 5 | 5 | 5 | 5 | 5 | 5 | 5 | 5 |
| COCOc1cc(-c2ccc(C(F)(F)F)n(C)c2=O)c(F)cc1Cl [1-24] | 5 | 5 | 5 | 5 | 5 | 5 | 5 | 5 | 5 | 5 | 5 | 5 | 5 | 5 | 5 |
| CC(C)Oc1cc(-c2ccc(C(F)(F)F)n(C)c2=O)c(Cl)cc1Cl [1-29] | 5 | 5 | 5 | 5 | 5 | 5 | 5 | 5 | 5 | 5 | 5 | 5 | 5 | 5 | 5 |
| C=CCOc1cc(-c2ccc(C(F)(F)F)n(C)c2=O)c(Cl)cc1Cl [1-32] | 5 | 5 | 5 | 5 | 5 | 5 | 5 | 5 | 5 | 5 | 5 | 5 | 5 | 5 | 5 |
| CC(C)Sc1cc(-c2ccc(C(F)(F)F)n(C)c2=O)c(Cl)cc1Cl [1-51] | 5 | 5 | 5 | 5 | 5 | 4 | 5 | 5 | 5 | 5 | 5 | 5 | 5 | 5 | 4 |
| CCS(=O)(=O)Nc1cc(-c2ccc(C(F)(F)F)n(C)c2=O)c(F)cc1Cl [1-61] | 5 | 5 | 5 | 5 | 5 | 5 | 5 | 5 | 5 | 5 | 5 | 5 | 5 | 5 | 5 |
| CCOC(=O)C(C)Nc1cc(-c2ccc(C(F)(F)F)n(C)c2=O)c(F)cc1Cl (stereo not drawn) [1-64] | 5 | 5 | 5 | 5 | 5 | 5 | 5 | 5 | 5 | 5 | 5 | 5 | 5 | 5 | 5 |
| CCSC(=O)c1cc(-c2ccc(C(F)(F)F)n(C)c2=O)c(F)cc1Cl [1-67] | 5 | 5 | 5 | 5 | 5 | 5 | 5 | 5 | 5 | 5 | 5 | 5 | 5 | 5 | 5 |
| C=CCOc1cc(-c2cc(C)c(C(F)(F)F)n(C)c2=O)c(F)cc1Cl [1-77] | 5 | 5 | 5 | 5 | 5 | 5 | 5 | 5 | 5 | 5 | 5 | 5 | 5 | 5 | 5 |
| C#CC(C)Oc1cc(-c2cc(C)c(C(F)(F)F)n(C)c2=O)c(F)cc1Cl (stereo not drawn) [1-78] | 5 | 5 | 5 | 5 | 5 | 5 | 5 | 5 | 5 | 5 | 5 | 5 | 5 | 5 | 5 |
| Cc1cc(-c2cc(OC(C)C)c(Cl)cc2F)c(=O)n(C)c1C(F)(F)F [1-80] | 5 | 5 | 5 | 5 | 5 | 5 | 5 | 5 | 5 | 5 | 5 | 5 | 5 | 5 | 5 |
| COC(=O)COc1cc(-c2ccc(C(F)(F)F)n(C)c2=O)c(F)cc1Cl [1-99] | 5 | 5 | 5 | 5 | 5 | 5 | 5 | 5 | 5 | 5 | 5 | 5 | 5 | 5 | 5 |
| Cn1c(C(F)(F)F)ccc(-c2cc(OCC(=O)OC3CCCC3)c(Cl)cc2F)c1=O [1-102] | 4 | 5 | 5 | 5 | 5 | 5 | 5 | 5 | 5 | 5 | 5 | 5 | 5 | 5 | 5 |
| CCCOC(=O)COc1cc(-c2ccc(C(F)(F)F)n(C)c2=O)c(F)cc1Cl [1-104] | 5 | 5 | 5 | 5 | 5 | 5 | 5 | 5 | 5 | 5 | 5 | 5 | 5 | 5 | 5 |
